Data published in patent publication US20160101188A1, “NOVEL NANOCARRIER DELIVERED CANCER CHEMOTHERAPEUTIC AGENTS” (UNIVERSITY OF CINCINNATI, priority 2013, published 2016).

Key:
[1] = test system: MCF7 (breast cancer) cells; test: MTT cytotoxicity assay in MCF7 breast cancer cells; type: cell-based; conditions: 65 hours incubation, read-out: IC50, viability of MCF7 cells from the MTT assay
Procedure: The cyctoxicity of compounds was determined in MCF 7 (breast cancer) cells.
MCF7 cells were grown in RPMI 1640 media with 10 nM estrogen and 1 mM insulin. Cells were tyripsinized and resuspended at a density of 2.2×10^4 cells per mL. 500 μL of this suspension was added to each well in a 24 well plate. The plates were incubated at 37° C. and 5% CO2 atmosphere overnight. The media was changed, and plates were dosed in triplicate with compound dissolved in DMSO. Cells were dosed not to exceed 0.5% DMSO in solution. Cells were dosed to a final concentration of 100, 50, 25, 12.5, and 6.25 μM of compound. 5-Flurouracil was used as a positive control and dosed in the same manner. Plates were incubated for 65 hours prior to the addition of MTT solution. 500 μL of a 193 μg/mL MTT and media solution was added to each well. Plates were incubated for 3 hours. The MTT solution was removed and 500 μL of DMSO was added to each well. Cells were imaged using GS 800 Bio Rad scanner and Quality One Software. IC50 curves were determined by plotting viability verses compound concentration. Kaleidagraph software was used to calculate the R value for each logarithmic curve fitting.

Breast MSF7 = test: NCI in vitro cell line screen (SRB), single dose; type: cell-based, human; conditions: Breast MSF7, single dose of 10 μM
Procedure: (§1) Four of the preliminary lead compounds: three nucleosides (JT-1-10, VAL-1-15/42, VAL-1-16) and one nucleobase (KB-1-17)—were submitted to the National Cancer Institute for the in vitro cell line screening project (IVCLSP). The screening consisted in the evaluation of this compound against the 60 cell lines at a single dose of 10 μM.
(§2) The human tumor cell lines of the cancer screening panel are grown in RPMI 1640 medium containing 5% fetal bovine serum and 2 mM L-glutamine. For a typical screening experiment, cells are inoculated into 96 well microtiter plates in 100 μL at plating densities ranging from 5,000 to 40,000 cells/well depending on the doubling time of individual cell lines. After cell inoculation, the microtiter plates are incubated at 37° C., 5% CO2, 95% air and 100% relative humidity for 24 h prior to addition of experimental drugs.
(§3) After 24 h, two plates of each cell line are fixed in situ with TCA, to represent a measurement of the cell population for each cell line at the time of drug addition (Tz). Experimental drugs are solubilized in dimethyl sulfoxide at 400-fold the desired final maximum test concentration and stored frozen prior to use. At the time of drug addition, an aliquot of frozen concentrate is thawed and diluted to twice the desired final maximum test concentration with complete medium containing 50 μg/ml gentamicin. Additional four, 10-fold or ½ log serial dilutions are made to provide a total of five drug concentrations plus control. Aliquots of 100 μl of these different drug dilutions are added to the appropriate microtiter wells already containing 100 μl of medium, resulting in the required final drug concentrations.
(§4) Following drug addition, the plates are incubated for an additional 48 h at 37° C., 5% CO2, 95% air, and 100% relative humidity. For adherent cells, the assay is terminated by the addition of cold TCA. Cells are fixed in situ by the gentle addition of 50 μl of cold 50% (w/v) TCA (final concentration, 10% TCA) and incubated for 60 minutes at 4° C. The supernatant is discarded, and the plates are washed five times with tap water and air dried. Sulforhodamine B (SRB) solution (100 μl) at 0.4% (w/v) in 1% acetic acid is added to each well, and plates are incubated for 10 minutes at room temperature. After staining, unbound dye is removed by washing five times with 1% acetic acid and the plates are air dried. Bound stain is subsequently solubilized with 10 mM trizma base, and the absorbance is read on an automated plate reader at a wavelength of 515 nm. For suspension cells, the methodology is the same except that the assay is terminated by fixing settled cells at the bottom of the wells by gently adding 50 μl of 80% TCA (final concentration, 16% TCA). Using the seven absorbance measurements [time zero, (Tz), control growth, (C), and test growth in the presence of drug at the five concentration levels (Ti)], the percentage growth is calculated at each of the drug concentrations levels. Percentage growth inhibition is calculated as:
(§5) [(Ti−Tz)/(C−Tz)]×100 for concentrations for which Ti>/=Tz
(§6) [(Ti−Tz)/Tz]×100 for concentrations for which Ti<Tz.
(§7) Three dose response parameters are calculated for each experimental agent. Growth inhibition of 50% (GI50) is calculated from [(Ti−Tz)/(C−Tz)]×100=50, which is the drug concentration resulting in a 50% reduction in the net protein increase (as measured by SRB staining) in control cells during the drug incubation. The drug concentration resulting in total growth inhibition (TGI) is calculated from Ti=Tz. The LC50 (concentration of drug resulting in a 50% reduction in the measured protein at the end of the drug treatment as compared to that at the beginning) indicating a net loss of cells following treatment is calculated from [(Ti−Tz)/Tz]×100=−50. […]

CNS SNB-75 = test: NCI in vitro cell line screen (SRB), single dose; type: cell-based, human; conditions: CNS SNB-75, single dose of 10 μM
Procedure: as §1, §2, §3, §4, §5, §6, §7

Leukemia RPMI-8226 = test: NCI in vitro cell line screen (SRB), single dose; type: cell-based, human; conditions: Leukemia RPMI-8226, single dose of 10 μM
Procedure: as §1, §2, §3, §4, §5, §6, §7

[2] = test system: Non-Small Cell Lung HOP-92; test: NCI in vitro cell line screen (SRB), single dose; type: cell-based, human; conditions: Non-Small Cell Lung HOP-92, single dose of 10 μM
Procedure: as §1, §2, §3, §4, §5, §6, §7

[3] = test system: Non-Small Cell Lung NCI-H522; test: NCI in vitro cell line screen (SRB), single dose; type: cell-based, human; conditions: Non-Small Cell Lung NCI-H522, single dose of 10 μM
Procedure: as §1, §2, §3, §4, §5, §6, §7

Renal TK-10 = test: NCI in vitro cell line screen (SRB), single dose; type: cell-based, human; conditions: Renal TK-10, single dose of 10 μM
Procedure: as §1, §2, §3, §4, §5, §6, §7

Renal UO-31 = test: NCI in vitro cell line screen (SRB), single dose; type: cell-based, human; conditions: Renal UO-31, single dose of 10 μM
Procedure: as §1, §2, §3, §4, §5, §6, §7

Prostate PC-3 = test: NCI in vitro cell line screen (SRB), single dose; type: cell-based, human; conditions: Prostate PC-3, single dose of 10 μM
Procedure: as §1, §2, §3, §4, §5, §6, §7

Renal CAKI-1 = test: NCI in vitro cell line screen (SRB), single dose; type: cell-based, human; conditions: Renal CAKI-1, single dose of 10 μM
Procedure: as §1, §2, §3, §4, §5, §6, §7

Melanoma UACC-62 = test: NCI in vitro cell line screen (SRB), single dose; type: cell-based, human; conditions: Melanoma UACC-62, single dose of 10 μM
Procedure: as §1, §2, §3, §4, §5, §6, §7

Renal A498 = test: NCI in vitro cell line screen (SRB), single dose; type: cell-based, human; conditions: Renal A498, single dose of 10 μM
Procedure: as §1, §2, §3, §4, §5, §6, §7

Compound | IC50 [1] | Growth Percent (Breast MSF7) | Growth Percent (CNS SNB-75) | Growth Percent (Leukemia RPMI-8226) | Growth Percent [2] | Growth Percent [3] | Growth Percent (Renal TK-10) | Growth Percent (Renal UO-31) | Growth Percent (Prostate PC-3) | Growth Percent (Renal CAKI-1) | Growth Percent (Melanoma UACC-62) | Growth Percent (Renal A498)
CC(C)(C)C(OCc1cn([C@H]2C[C@H](O)[C@@H](CO)O2)c(=O)[nH]c1=O)c1ccccc1 (stereo partly shown) [JT-1-10, 5-[1-(phenyl)-2,2-(dimethyl)-1-propoxymethyl]-2′-deoxyuridine] | 188 µM | 87% | 65% | 90% | 89% | 91% | 84% | 88% | – | – | – | –
CC(C)(C)C(OCc1cn([C@H]2C[C@H](O)[C@@H](CO)O2)c(=O)[nH]c1=O)c1ccccc1[N+](=O)[O-] (stereo partly shown) [VAL-1-15/27/42, 5-[1-(2-nitrophenyl)-2,2-(dimethyl)propoxymethyl]-2′-deoxyuridine] | 42 µM | – | 84% | – | 73% | – | – | – | 91% | 88% | – | –
CC(C)(C)CC(OCc1cn([C@H]2C[C@H](O)[C@@H](CO)O2)c(=O)[nH]c1=O)c1ccccc1 (stereo partly shown) [VAL-1-16, 5-[1-(phenyl)-3,3-(dimethyl)-1-butoxymethyl]-2′-deoxyuridine] | – | – | 92% | – | – | – | – | – | – | – | 90% | 92%
